26 molecules from patent US20230167073A1 (Teijin Pharma Limited, priority 2020, published 2023) can be followed below.

One experiment addresses T1, Human TRPC6 (Homo sapiens, UniProt Q9Y210).
T1 construct: expressed in transfected cells
T1 sequence (Q9Y210 1-931): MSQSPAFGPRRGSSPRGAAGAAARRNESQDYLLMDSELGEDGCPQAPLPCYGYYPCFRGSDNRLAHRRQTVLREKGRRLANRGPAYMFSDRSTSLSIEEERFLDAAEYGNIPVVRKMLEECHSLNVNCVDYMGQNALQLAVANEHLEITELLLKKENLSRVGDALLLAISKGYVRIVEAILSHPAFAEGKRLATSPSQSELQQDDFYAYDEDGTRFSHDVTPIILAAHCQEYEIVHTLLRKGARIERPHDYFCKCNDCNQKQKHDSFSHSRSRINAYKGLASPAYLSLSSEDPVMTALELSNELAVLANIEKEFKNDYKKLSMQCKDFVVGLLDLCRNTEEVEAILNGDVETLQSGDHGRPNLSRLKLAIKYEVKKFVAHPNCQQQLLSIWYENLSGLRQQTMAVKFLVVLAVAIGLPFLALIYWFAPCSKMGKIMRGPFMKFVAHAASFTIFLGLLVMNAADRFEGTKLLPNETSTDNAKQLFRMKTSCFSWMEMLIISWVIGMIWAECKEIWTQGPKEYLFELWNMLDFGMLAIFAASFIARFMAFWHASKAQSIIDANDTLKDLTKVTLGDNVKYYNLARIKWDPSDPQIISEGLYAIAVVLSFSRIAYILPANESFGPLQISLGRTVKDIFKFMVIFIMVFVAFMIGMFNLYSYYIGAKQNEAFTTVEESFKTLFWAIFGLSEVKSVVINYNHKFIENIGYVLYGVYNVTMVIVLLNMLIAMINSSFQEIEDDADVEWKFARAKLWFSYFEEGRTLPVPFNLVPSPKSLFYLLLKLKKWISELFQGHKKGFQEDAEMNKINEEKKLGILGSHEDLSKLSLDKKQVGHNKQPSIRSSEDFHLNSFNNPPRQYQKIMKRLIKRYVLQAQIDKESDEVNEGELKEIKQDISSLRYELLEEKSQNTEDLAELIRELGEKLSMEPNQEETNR
Description: Evaluation of TRPC6 channel inhibitory activity (1), FLIPR Calcium 5 Assay Kit, OAG stimulation (Compound Nos. 1-1293). Type of experiment: cell-based.
Conditions: not given
In short, it runs like this: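 Stable human TRPC6 line; fluorescent Ca2+ dye loading, then 20 min compound exposure before 30 μM OAG trigger. Peak-minus-baseline signal converted to % inhibition against untreated and unstimulated wells; potency given as pIC50 band.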
On to `Cc1nc(Oc2cc(C#N)ccc2-c2ncc(CCN)cn2)cc(N2C3CCC2CC3)n1` [compound 671, 4-[5-(2-aminoethyl)pyrimidin-2-yl]-3-[6-(7-azabicyclo[2.2.1]heptan-7-yl)-2-methylpyrimidin-4-yl]oxybenzonitrile], for which the IC50 is below 10 nM.

The same experiment, now with this note: Human TRPC6 stably-expressing cells, OAG 30 μM, FLIPR Calcium 5 Assay Kit; read-out: Inhibitory activity (pIC50 class) (converted).
Regarding `Cc1cnc(N2CCOCC2)cc1Oc1cc(C#N)ccc1-c1ncc(CCN)cn1` [compound 902, 4-[5-(2-aminoethyl)pyrimidin-2-yl]-3-(5-methyl-2-morpholin-4-ylpyridin-4-yl)oxybenzonitrile], the IC50 was 10 to 1000 nM. Still for that read-out and setting: in the case of `N#Cc1ccc(-c2ccc(CCN)cc2)c(Cn2cnc(-c3ccc(C(F)(F)F)cc3)c2)c1` [compound 1124, 4-[4-(2-aminoethyl)phenyl]-3-[[4-[4-(trifluoromethyl)phenyl]imidazol-1-yl]methyl]benzonitrile] it was above 1000 nM. The same measure, in the same setting: under `Cc1nc(Sc2cc(C#N)ccc2-n2cc(CCN)cn2)cc(N2CCOCC2)n1` [compound 1251, 4-[4-(2-aminoethyl)pyrazol-1-yl]-3-(2-methyl-6-morpholin-4-ylpyrimidin-4-yl)sulfanylbenzonitrile] stands 10 to 1000 nM; under `CN(C)c1cc(Oc2cc(C#N)ccc2-c2ccc(CN)cn2)n(C)n1` [compound 623, 4-[5-(aminomethyl)pyridin-2-yl]-3-[5-(dimethylamino)-2-methylpyrazol-3-yl]oxybenzonitrile], below 10 nM; under `Cc1nc(Oc2cc(C#N)ccc2-c2ncc(CCN)cn2)cc(N2CCCC2=O)n1` [compound 880, 4-[5-(2-aminoethyl)pyrimidin-2-yl]-3-[2-methyl-6-(2-oxopyrrolidin-1-yl)pyrimidin-4-yl]oxybenzonitrile], 10 to 1000 nM. As to `N#Cc1ccc(-c2ncc(CCN)cn2)c([S+]([O-])c2cnnc(-c3ccccc3)c2)c1` (centres unmarked) [compound 1275, 4-[5-(2-aminoethyl)pyrimidin-2-yl]-3-(6-phenylpyridazin-4-yl)sulfinylbenzonitrile], the IC50 is above 1000 nM. Same read-out and setting: under `N#Cc1ccc(-c2ncc(CCN)cn2)c(Cc2cnn(-c3ccccn3)c2)c1` [compound 1197, 4-[5-(2-aminoethyl)pyrimidin-2-yl]-3-[(1-pyridin-2-ylpyrazol-4-yl)methyl]benzonitrile] stands 10 to 1000 nM; under `N#Cc1ccc(-c2ncc(CN)cn2)c(C(=O)c2cnn(-c3ccncn3)c2)c1` [compound 1055, 4-[5-(aminomethyl)pyrimidin-2-yl]-3-(1-pyrimidin-4-ylpyrazole-4-carbonyl)benzonitrile], above 1000 nM; under `Cn1nc(C2CCC2)cc1Oc1cc(C#N)ccc1-c1ccc(C(O)CNCC#N)cn1` (centres unmarked) [Compound 280, 4-[5-[2-(cyanomethylamino)-1-hydroxyethyl]pyridin-2-yl]-3-(5-cyclobutyl-2-methylpyrazol-3-yl)oxybenzonitrile], 10 to 1000 nM.

As for `CC(C)n1cc(Oc2cc(Cl)ccc2-c2ncc(CCN)cn2)cn1` [compound 1020, 2-[2-[4-chloro-2-(1-propan-2-ylpyrazol-4-yl)oxyphenyl]pyrimidin-5-yl]ethanamine], the IC50 was 10 to 1000 nM. On to `Cc1nc(Oc2cc(C#N)ccc2-c2ccc(CCN)cc2)cc(-c2ccccc2O)n1` [Compound 22, 4-[4-(2-aminoethyl)phenyl]-3-[6-(2-hydroxyphenyl)-2-methylpyrimidin-4-yl]oxybenzonitrile], for which the IC50 is 10 to 1000 nM. Take `CCCc1cc(Oc2cc(C#N)ccc2-c2ccc(CCN)cn2)n(C)n1` [Compound 230, 4-[5-(2-aminoethyl)pyridin-2-yl]-3-(2-methyl-5-propylpyrazol-3-yl)oxybenzonitrile]: the IC50 is below 10 nM. For the molecule `Cc1nc(Oc2cc(C#N)ccc2-n2cc(CCN)cn2)cc(N2CCOCC2)n1` [Compound 259, 4-[4-(2-aminoethyl)pyrazol-1-yl]-3-(2-methyl-6-morpholin-4-ylpyrimidin-4-yl)oxybenzonitrile], the IC50 was 10 to 1000 nM.

Regarding `Cn1nc(-c2cccnc2)cc1Oc1cc(C#N)ccc1-c1ccc(CCN)cc1` [Compound 163, 4-[4-(2-aminoethyl)phenyl]-3-(2-methyl-5-pyridin-3-ylpyrazol-3-yl)oxybenzonitrile], the IC50 is 10 to 1000 nM. Regarding `Cc1cc(Oc2cc(C#N)ccc2-c2nnc(CN)s2)cc(N2CCOCC2)n1` [compound 593, 4-[5-(aminomethyl)-1,3,4-thiazol-2-yl]-3-(2-methyl-6-morpholin-4-ylpyridin-4-yl)oxybenzonitrile], the IC50 is above 1000 nM. On to `Cc1nc(Oc2cc(C#N)ccc2-c2ncc([C@H](O)CN)cn2)cc(N2CCOC(C)(C)C2)n1` [compound 561, 4-[5-[(1S)-2-amino-1-hydroxyethyl]pyrimidin-2-yl]-3-[6-(2,2-dimethylmorpholin-4-yl)-2-methylpyrimidin-4-yl]oxybenzonitrile], for which the IC50 was 10 to 1000 nM. As for `Cc1cc(Oc2cc(C#N)ccc2-c2ccc(C3(O)CNC3)cn2)cc(N2CCOCC2)n1` [compound 537, 4-[5-(3-hydroxyazetidin-3-yl)pyridin-2-yl]-3-(2-methyl-6-morpholin-4-ylpyridin-4-yl)oxybenzonitrile], the IC50 is above 1000 nM. For the molecule `Cn1nc(-c2ccccn2)cc1Oc1cc(C#N)ccc1-c1ccc(CCN)cn1` [Compound 176, 4-[5-(2-aminoethyl)pyridin-2-yl]-3-(2-methyl-5-pyridin-2-ylpyrazol-3-yl)oxybenzonitrile], the IC50 is below 10 nM.

For `N#Cc1ccc(-c2ncc(CN)cn2)c(Sc2cnnc(N3CCCC3)c2)c1` [compound 1265, 4-[5-(aminomethyl)pyrimidin-2-yl]-3-(6-pyrrolidin-1-ylpyridazin-4-yl)sulfanylbenzonitrile], the IC50 is 10 to 1000 nM. On the same count and under the same terms, under `CCN(CC(F)F)c1cc(C(=O)c2cc(C#N)ccc2-c2ncc(CN)cn2)n(C)n1` [compound 1074, 4-[5-(aminomethyl)pyrimidin-2-yl]-3-[5-[2,2-difluoroethyl(ethyl)amino]-2-methylpyrazole-3-carbonyl]benzonitrile] stands below 10 nM; under `Cn1nc(-c2ccccn2)cc1Oc1cc(C#N)cnc1-c1ccc(CN)cn1` [Compound No. 1289, 6-[5-(Aminomethyl)pyridin-2-yl]-5-(2-methyl-5-pyridin-2-ylpyrazol-3-yl)oxypyridine-3-carbonitrile], above 1000 nM.

Consider `Cc1nc(Oc2cc(C#N)ccc2-c2ccc(C[C@H](N)C(N)=O)cc2)cc(-c2ccccc2)n1` [Compound 240, (2S)-2-amino-3-[4-[4-cyano-2-(2-methyl-6-phenylpyrimidin-4-yl)oxyphenyl]phenyl]propanamide], for which the IC50 is 10 to 1000 nM. The same measure, in the same setting: in the case of `Cn1nc(N2CCOCC2)cc1Oc1cc(F)ccc1-c1ncc(CN)cn1` [compound 974, [2-[4-fluoro-2-(2-methyl-5-morpholin-4-ylpyrazol-3-yl)oxyphenyl]pyrimidin-5-yl]methanamine] it was 10 to 1000 nM; in that of `Cn1nc(N2CCOCC2)cc1C(=O)c1cc(F)ccc1-c1ccc(CCN)cn1` [compound 1106, [2-[5-(2-aminoethyl)pyridin-2-yl]-5-fluorophenyl]-(2-methyl-5-morpholin-4-ylpyrazol-3-yl)methanone], below 10 nM. Still for that read-out and setting: under `CCCCc1cc(Oc2cc(C#N)ccc2-c2ccc(C(O)C(C)(C)N)cn2)n(C)n1` (centres unmarked) [compound 336, 4-[5-(2-amino-1-hydroxy-2-methylpropyl)pyridin-2-yl]-3-(5-butyl-2-methylpyrazol-3-yl)oxybenzonitrile] stands below 10 nM.
